Data: the supplement of paper PMC8671470

How the values were obtained:
Settings in all cases: 72 h
HL-60 [1] = test: cell viability (% survival relative to DMSO control); higher = less cytotoxic
Method in brief: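 HL-60 cells in RPMI 1640 with 10% FBS were rescreened against the full library on 384-well plates at five tenfold concentrations, 1–10,000 nM, in duplicate. Each screen was run with DMSO or 100 nM of one of three metabolic inhibitors, for 72 h at 37 °C, 5% CO2. Viability was read by CellTiter-Glo and normalised to DMSO and 10 μM proteasome-inhibitor wells. Where given, area under the curve came from four-parameter log-logistic fits (drc, PharmacoGx).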

LAMA-84 [2] = test: cell viability (% survival relative to DMSO control, bortezomib = 0%); higher = less cytotoxic
Method in brief: (§1)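 Fifteen myeloid leukaemia cell lines (10 AML, 5 CML) were seeded at a density titrated to the linear growth range into 384-well plates pre-printed with compounds at 1, 10, 100, 1000 or 10000 nM in duplicate. Plates were incubated for 72 h at 37 °C with 5% CO2. Viability was then read by CellTiter-Glo luminescence. Each value is percent survival averaged over the duplicates, with vehicle set to 100% and a 10 µM positive control to 0%.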

Mono-Mac-6 [3] = test: as above
Method in brief: as §1

K-562 [4] = test: as above
Method in brief: as §1

ML-2 [5] = test: as above
Method in brief: as §1

BV-173 [6] = test: as above
Method in brief: as §1

KU-812 [7] = test: as above
Method in brief: as §1

HEL [8] = test: as above
Method in brief: as §1

MV4-11 [9] = test: as above
Method in brief: as §1

NOMO-1 [10] = test: as above
Method in brief: as §1

SHI-1 [11] = test: as above
Method in brief: as §1

THP-1 [12] = test: as above
Method in brief: as §1

HL-60 [13] = test: as above
Method in brief: as §1

LAMA-84 [14] = system: LAMA-84
Method in brief: (§2)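 The IC50 was read from log-logistic dose–response fits. Fifteen myeloid leukaemia lines were exposed for 72 h at 37 °C with 5% CO2 to five tenfold doses from 1 to 10,000 nM in duplicate. ATP luminescence, normalised to vehicle and to a 10 µM positive control, was fitted with four parameters.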

KG-1 = system: KG-1
Method in brief: as §2

Mono-Mac-6 [15] = system: Mono-Mac-6
Method in brief: as §2

K-562 [16] = system: K-562
Method in brief: as §2

ML-2 [17] = system: ML-2
Method in brief: as §2

BV-173 [18] = system: BV-173
Method in brief: as §2

MOLM-13 = system: MOLM-13
Method in brief: as §2

KU-812 [19] = system: KU-812
Method in brief: as §2

HEL [20] = system: HEL
Method in brief: as §2

MV4-11 [21] = system: MV4-11
Method in brief: as §2

NOMO-1 [22] = system: NOMO-1
Method in brief: as §2

SHI-1 [23] = system: SHI-1
Method in brief: as §2

THP-1 [24] = system: THP-1
Method in brief: as §2

KCL-22 = system: KCL-22
Method in brief: as §2

HL-60 [25] = system: HL-60
Method in brief: as §2

Cc1coc2c1C(=O)C(=O)c1c-2ccc2c1CCCC2(C)C [Tanshinone IIA]
cell viability [%], HL-60 [1]
Settings | 0.001 µM | 0.01 µM | 0.1 µM | 1 µM | 10 µM
co-treatment: AZD3965 100 nM | 106 | 106 | 104 | 101 | 103
co-treatment: DMSO vehicle | 100.1 | 105 | 101 | 99.49 | 99
co-treatment: GSK2194069 100 nM | 106.9 | 110.7 | 105 | 101.4 | 97.5
co-treatment: pictilisib 100 nM | 95.5 | 111 | 107 | 109 | 109

cell viability [%]
Settings | 1 nM | 10 nM | 100 nM | 1000 nM | 10000 nM
BV-173 [6] | 91.9 | 103 | 105 | 97.3 | 87.7
HEL [8] | 91 | 100 | 107 | 111 | 97.9
HL-60 [13] | 113 | 96.6 | 95.1 | 98.7 | 79.3
K-562 [4] | 98.1 | 104 | 104 | 109 | 81.3
KU-812 [7] | 89.8 | 95.2 | 93.1 | 106 | 86.2
LAMA-84 [2] | 102 | 97.7 | 98.5 | 99.6 | 102
ML-2 [5] | 106 | 111 | 103 | 101 | 77.6
MV4-11 [9] | 91.9 | 100 | 93.1 | 101 | 80.3
Mono-Mac-6 [3] | 90.9 | 99 | 102 | 91.1 | 87.7
NOMO-1 [10] | 103 | 104 | 102 | 102 | 91.9
SHI-1 [11] | 106 | 98.5 | 98.8 | 107 | 96.1
THP-1 [12] | 98.4 | 110 | 104 | 92.4 | 62.5

Settings | IC50 (cell viability) [µM]
BV-173 [18] | > 10
HEL [20] | > 10
HL-60 [25] | > 10
K-562 [16] | > 10
KCL-22 | > 10
KG-1 | > 10
KU-812 [19] | > 10
LAMA-84 [14] | > 10
ML-2 [17] | > 10
MOLM-13 | > 10
MV4-11 [21] | > 10
Mono-Mac-6 [15] | > 10
NOMO-1 [22] | > 10
SHI-1 [23] | > 10
THP-1 [24] | > 10
